Experimental data reported in ChEMBL document CHEMBL5543145, “Discovery of the First-in-Class G9a/GLP PROTAC Degrader” (J Med Chem, 2024).
Calls of active or inactive are those of the source. No cut-off for these calls is given here.

Experiments:
[1] = molecular target: T1, von Hippel-Lindau disease tumor suppressor/Histone-lysine N-methyltransferase EHMT1 (Homo sapiens, UniProt Q9H9B1+P40337); assay: PROTAC activity at GLP/VHL in human 22Rv1 cells assessed as induction of GLP degradation at 3 uM measured at 24 to 48 hrs by Western blot analysis; type: cell-based; details: time 24-48 hrs
[2] = molecular target: T1, von Hippel-Lindau disease tumor suppressor/Histone-lysine N-methyltransferase EHMT1; assay: PROTAC activity at GLP/VHL in human 22Rv1 cells assessed as induction of GLP degradation at 3 uM by Western blot analysis; type: cell-based; details: time <= 48.0 hrs, TDE = time-dependent effect
[3] = molecular target: Histone-lysine N-methyltransferase EZH2 (Homo sapiens) (UniProt Q15910); assay: Inhibition of EZH2 (unknown origin) at 10 uM relative to control
[4] = molecular target: Histone-lysine N-methyltransferase, H3 lysine-79 specific (Homo sapiens) (UniProt Q8TEK3); assay: Inhibition of DOT1L (unknown origin) at 10 uM relative to control
NCI-H1299 = assay: Cytotoxicity against human NCI-H1299 cells assessed as growth inhibition incubated for 8 days; type: functional; details: NCI-H1299, 192 h, time 8 day
[5] = molecular target: T2, von Hippel-Lindau disease tumor suppressor/Histone-lysine N-methyltransferase EHMT2 (Homo sapiens, UniProt Q96KQ7+P40337); assay: PROTAC activity at G9a/VHL in human 22Rv1 cells assessed as induction of G9a degradation at 1 uM incubated for 24 hrs by Western blot analysis; type: cell-based
[6] = molecular target: T1, von Hippel-Lindau disease tumor suppressor/Histone-lysine N-methyltransferase EHMT1; assay: PROTAC activity at GLP/VHL in human 22Rv1 cells assessed as induction of GLP degradation at 3 uM incubated for 24 hrs by Western blot analysis relative to control; type: cell-based
[7] = molecular target: Histone-lysine N-methyltransferase SETD2 (Homo sapiens) (UniProt Q9BYW2); assay: Inhibition of SETD2 (unknown origin) at 10 uM relative to control
[8] = molecular target: T2, von Hippel-Lindau disease tumor suppressor/Histone-lysine N-methyltransferase EHMT2; assay: PROTAC activity at G9a/VHL in human 22Rv1 cells assessed as induction of G9a degradation at 0.3 uM incubated for 24 hrs by Western blot analysis relative to control; type: cell-based
[9] = molecular target: PRMT5/MEP50 complex (Homo sapiens) (UniProt O14744+Q9BQA1); assay: Inhibition of PRMT5/MEP50 (unknown origin) at 10 uM relative to control; type: protein-complex assay
[10] = molecular target: Histone-lysine N-methyltransferase SUV39H2 (Homo sapiens) (UniProt Q9H5I1); assay: Inhibition of SUV39H2 (unknown origin) at 10 uM relative to control
[11] = molecular target: T2, von Hippel-Lindau disease tumor suppressor/Histone-lysine N-methyltransferase EHMT2; assay: PROTAC activity at G9a/VHL in human 22Rv1 cells assessed as induction of G9a degradation at 3 uM by Western blot analysis; type: cell-based; details: time <= 48.0 hrs, TDE = time-dependent effect
[12] = molecular target: Histone-lysine N-methyltransferase NSD2 (Homo sapiens) (UniProt O96028); assay: Inhibition of NSD2 (unknown origin) at 10 uM relative to control
[13] = molecular target: Histone-lysine N-methyltransferase SETD1B (Homo sapiens) (UniProt Q9UPS6); assay: Inhibition of SET1b (unknown origin) at 10 uM relative to control
[14] = molecular target: T1, von Hippel-Lindau disease tumor suppressor/Histone-lysine N-methyltransferase EHMT1; assay: PROTAC activity at GLP/VHL in human 22Rv1 cells assessed as induction of GLP degradation at 3 uM measured at 4 hrs by Western blot analysis; type: cell-based
[15] = molecular target: T2, von Hippel-Lindau disease tumor suppressor/Histone-lysine N-methyltransferase EHMT2; assay: PROTAC activity at G9a/VHL in human 22Rv1 cells assessed as effect on G9a level upto 3 uM measured for 24 hrs by Western blot analysis; type: cell-based
[16] = molecular target: T2, von Hippel-Lindau disease tumor suppressor/Histone-lysine N-methyltransferase EHMT2; assay: PROTAC activity at G9a/VHL in human 22Rv1 cells assessed as induction of G9a degradation at 3 uM incubated for 24 hrs by Western blot analysis relative to control; type: cell-based
K562 = assay: Cytotoxicity against human K562 cells assessed as reduction in cell viability incubated for 8 days; type: functional, cell-based; details: K562, 192 h

T2 sequence (P40337 whole entry partner): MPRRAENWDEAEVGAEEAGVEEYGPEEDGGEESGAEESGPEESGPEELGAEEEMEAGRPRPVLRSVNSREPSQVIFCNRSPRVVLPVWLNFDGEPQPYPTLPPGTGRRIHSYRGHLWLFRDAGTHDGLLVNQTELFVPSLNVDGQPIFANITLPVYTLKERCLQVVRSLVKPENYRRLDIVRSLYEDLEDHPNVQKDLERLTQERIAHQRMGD
T2 sequence (Q96KQ7 2-1210 limits assumed): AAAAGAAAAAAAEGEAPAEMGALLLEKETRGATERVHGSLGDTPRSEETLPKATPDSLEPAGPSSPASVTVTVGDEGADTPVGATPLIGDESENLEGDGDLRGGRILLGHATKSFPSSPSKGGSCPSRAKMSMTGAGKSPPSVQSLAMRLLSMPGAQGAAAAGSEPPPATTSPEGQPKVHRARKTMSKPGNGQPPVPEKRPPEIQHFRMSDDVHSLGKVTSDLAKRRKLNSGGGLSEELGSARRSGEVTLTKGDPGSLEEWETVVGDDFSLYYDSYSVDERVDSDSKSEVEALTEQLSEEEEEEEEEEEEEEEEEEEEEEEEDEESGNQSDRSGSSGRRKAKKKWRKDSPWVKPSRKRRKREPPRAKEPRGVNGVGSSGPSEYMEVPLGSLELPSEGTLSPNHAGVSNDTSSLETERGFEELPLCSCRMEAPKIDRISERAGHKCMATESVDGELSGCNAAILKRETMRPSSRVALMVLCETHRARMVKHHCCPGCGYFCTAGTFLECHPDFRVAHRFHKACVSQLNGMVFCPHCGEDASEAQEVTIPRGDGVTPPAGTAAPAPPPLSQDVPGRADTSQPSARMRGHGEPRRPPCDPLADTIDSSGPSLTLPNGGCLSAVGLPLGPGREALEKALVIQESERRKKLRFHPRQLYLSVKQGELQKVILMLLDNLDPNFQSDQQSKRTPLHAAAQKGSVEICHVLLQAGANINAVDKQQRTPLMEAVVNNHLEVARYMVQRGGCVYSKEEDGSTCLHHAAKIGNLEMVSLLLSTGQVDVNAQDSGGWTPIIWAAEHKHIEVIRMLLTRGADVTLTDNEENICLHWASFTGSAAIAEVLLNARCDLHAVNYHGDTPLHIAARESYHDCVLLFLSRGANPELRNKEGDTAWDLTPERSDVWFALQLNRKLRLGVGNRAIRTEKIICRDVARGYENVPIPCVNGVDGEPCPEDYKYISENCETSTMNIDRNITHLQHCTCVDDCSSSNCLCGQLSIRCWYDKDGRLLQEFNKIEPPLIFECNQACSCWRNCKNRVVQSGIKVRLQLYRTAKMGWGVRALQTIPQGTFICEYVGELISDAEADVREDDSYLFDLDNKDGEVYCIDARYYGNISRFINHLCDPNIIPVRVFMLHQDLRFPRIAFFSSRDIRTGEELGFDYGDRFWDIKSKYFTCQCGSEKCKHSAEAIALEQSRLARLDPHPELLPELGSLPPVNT
T1 sequence (P40337 whole entry partner): as the sequence (P40337 whole entry partner) above
T1 sequence (Q9H9B1 2-1298 limits assumed): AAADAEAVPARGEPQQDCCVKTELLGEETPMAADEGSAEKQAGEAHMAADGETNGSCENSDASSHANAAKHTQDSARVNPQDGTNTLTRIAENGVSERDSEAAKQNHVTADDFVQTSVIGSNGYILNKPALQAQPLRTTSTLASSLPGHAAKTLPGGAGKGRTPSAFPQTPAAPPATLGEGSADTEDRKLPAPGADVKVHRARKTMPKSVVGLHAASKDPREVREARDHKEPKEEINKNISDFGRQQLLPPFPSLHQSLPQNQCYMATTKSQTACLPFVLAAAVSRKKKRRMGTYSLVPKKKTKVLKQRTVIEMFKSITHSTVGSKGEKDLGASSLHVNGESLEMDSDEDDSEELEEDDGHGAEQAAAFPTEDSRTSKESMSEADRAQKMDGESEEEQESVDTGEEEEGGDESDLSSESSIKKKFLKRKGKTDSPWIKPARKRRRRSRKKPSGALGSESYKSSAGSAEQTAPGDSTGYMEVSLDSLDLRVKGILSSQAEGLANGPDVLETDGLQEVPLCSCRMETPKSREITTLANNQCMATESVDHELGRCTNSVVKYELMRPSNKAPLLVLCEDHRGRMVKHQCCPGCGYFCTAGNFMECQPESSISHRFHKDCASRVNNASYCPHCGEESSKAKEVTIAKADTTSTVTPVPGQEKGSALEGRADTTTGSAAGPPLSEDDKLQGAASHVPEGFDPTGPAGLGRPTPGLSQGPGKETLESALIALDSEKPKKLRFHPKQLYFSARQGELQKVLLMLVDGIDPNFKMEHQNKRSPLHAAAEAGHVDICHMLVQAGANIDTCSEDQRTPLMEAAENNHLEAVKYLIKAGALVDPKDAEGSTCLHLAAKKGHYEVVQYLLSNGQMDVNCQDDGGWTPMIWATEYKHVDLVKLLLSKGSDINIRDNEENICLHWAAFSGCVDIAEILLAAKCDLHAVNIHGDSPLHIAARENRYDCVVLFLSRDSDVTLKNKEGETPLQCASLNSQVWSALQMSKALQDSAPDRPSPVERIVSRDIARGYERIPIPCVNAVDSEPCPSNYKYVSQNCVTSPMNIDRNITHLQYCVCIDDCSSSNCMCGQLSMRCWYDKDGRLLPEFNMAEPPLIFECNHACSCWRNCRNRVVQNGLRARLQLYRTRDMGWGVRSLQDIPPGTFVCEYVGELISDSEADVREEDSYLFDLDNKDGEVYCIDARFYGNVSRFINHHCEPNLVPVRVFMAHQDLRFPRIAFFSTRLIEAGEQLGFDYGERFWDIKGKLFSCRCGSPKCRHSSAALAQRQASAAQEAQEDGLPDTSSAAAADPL
Chain of Histone-lysine N-methyltransferase EZH2 (Homo sapiens) (Q15910 whole entry, looked up): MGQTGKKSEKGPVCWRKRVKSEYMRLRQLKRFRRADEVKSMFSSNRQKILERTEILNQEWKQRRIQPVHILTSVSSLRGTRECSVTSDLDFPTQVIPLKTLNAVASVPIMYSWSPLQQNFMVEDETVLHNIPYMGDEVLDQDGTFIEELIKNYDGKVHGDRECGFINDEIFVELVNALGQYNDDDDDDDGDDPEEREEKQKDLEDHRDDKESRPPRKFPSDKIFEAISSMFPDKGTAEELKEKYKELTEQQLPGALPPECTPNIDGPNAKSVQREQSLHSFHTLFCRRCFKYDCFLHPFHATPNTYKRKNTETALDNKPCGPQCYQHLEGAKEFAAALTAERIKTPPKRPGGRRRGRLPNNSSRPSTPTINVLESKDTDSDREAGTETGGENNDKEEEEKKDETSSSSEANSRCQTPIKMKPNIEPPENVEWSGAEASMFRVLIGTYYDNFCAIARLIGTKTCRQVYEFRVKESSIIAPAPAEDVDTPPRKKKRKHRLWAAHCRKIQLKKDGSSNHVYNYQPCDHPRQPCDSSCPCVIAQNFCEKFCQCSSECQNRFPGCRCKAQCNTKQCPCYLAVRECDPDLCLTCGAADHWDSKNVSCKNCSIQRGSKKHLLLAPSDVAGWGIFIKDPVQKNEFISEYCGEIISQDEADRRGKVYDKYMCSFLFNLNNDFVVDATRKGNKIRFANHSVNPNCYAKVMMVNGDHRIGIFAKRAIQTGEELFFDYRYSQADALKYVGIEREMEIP
Chain of Histone-lysine N-methyltransferase SUV39H2 (Homo sapiens) (Q9H5I1 whole entry): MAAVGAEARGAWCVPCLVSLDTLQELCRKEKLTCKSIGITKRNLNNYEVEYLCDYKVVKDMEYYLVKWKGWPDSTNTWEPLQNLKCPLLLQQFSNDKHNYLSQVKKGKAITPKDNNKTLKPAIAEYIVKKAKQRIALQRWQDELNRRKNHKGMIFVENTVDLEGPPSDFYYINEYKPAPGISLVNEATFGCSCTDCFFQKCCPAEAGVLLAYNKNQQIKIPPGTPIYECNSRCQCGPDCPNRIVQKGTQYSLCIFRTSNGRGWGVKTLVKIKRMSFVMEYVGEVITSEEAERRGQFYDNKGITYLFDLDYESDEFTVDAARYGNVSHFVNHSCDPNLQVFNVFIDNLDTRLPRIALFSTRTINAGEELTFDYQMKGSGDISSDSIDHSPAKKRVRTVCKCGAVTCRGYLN

COc1cc2c(NC3CCN(CCCC(=O)NCCCCCCCCCCCC(=O)N[C@H](C(=O)N4C[C@H](O)C[C@H]4C(=O)NCc4ccc(-c5scnc5C)cc4)C(C)(C)C)CC3)nc(N3CCC(F)(F)CC3)nc2cc1OCCCN1CCCC1
Activity [1]: 100% | Activity [2]: Tde | inhibition [3]: > 50% | inhibition [4]: > 50% | GI50 (NCI-H1299): 5 µM | Activity [5]: Active | Emax [6]: > 99% | inhibition [7]: > 50% | Emax [8]: 73% | inhibition [9]: > 50% | inhibition [10]: > 50% | Activity [11]: Tde | inhibition [12]: > 50% | inhibition [13]: > 50% | Activity [14]: Active | Activity [15]: Active | Emax [16]: > 99% | IC50 (K562): 2 µM
